From ChEMBL document CHEMBL3244039, “Antiviral activity of some beta-diketones. 2. Aryloxy alkyl diketones. In vitro activity against both RNA and DNA viruses” (1977)
≈ marks a conversion by molar mass, not a printed value. Calls of active or inactive are those of the source. The rule behind the calls is not given here.

Experiments:
[1] = tested on: Human alphaherpesvirus 2; assay: Antiviral activity against Herpes simplex virus 2 assessed as inhibition of virus-induced cytopathic effect after 72 hrs by two-fold dilution method; type: functional; details: Human alphaherpesvirus 2, 72 h
[2] = tested on: Equine rhinovirus; assay: Antiviral activity against Equine rhinovirus assessed as inhibition of virus-induced cytopathic effect after 48 hrs by two-fold dilution method
[3] = tested on: Human alphaherpesvirus 2; assay: Antiviral activity against Herpes simplex virus 2 assessed as inhibition of virus-induced cytopathic effect at 50 ug/ml after 72 hrs by two-fold dilution method; type: functional, organism-based
[4] = tested on: Human alphaherpesvirus 2; assay: Antiviral activity against Herpes simplex virus 2 Curtis assessed as inhibition of virus-induced cytopathic effect at 37 degC after 72 hrs by two-fold dilution method; type: functional; details: Human alphaherpesvirus 2, Curtis
[5] = tested on: Human alphaherpesvirus 1; assay: Antiviral activity against Herpes simplex virus 1 Sheely assessed as inhibition of virus-induced cytopathic effect at 37 degC after 72 hrs by two-fold dilution method; type: functional; details: Human alphaherpesvirus 1, Sheely
[6] = tested on: Equine rhinovirus; assay: Antiviral activity against Equine rhinovirus infected in rhesus monkey trachea assessed as reduction in viral yield at 100 ug/ml after 3 days followed by compound-washout measured after 24 hrs by human CATR cell-based titration method relative to control v; design: scale not given: the % may be the effect or the level left
[7] = tested on: Equine rhinovirus; assay: Antiviral activity against Equine rhinovirus infected in rhesus monkey trachea assessed as reduction in viral yield at 400 ug/ml after 3 days followed by compound-washout measured after 24 hrs by human CATR cell-based titration method relative to control; design: scale not given: the % may be the effect or the level left
[8] = tested on: rhinovirus A2; assay: Antiviral activity against Human rhinovirus 2 assessed as inhibition of virus-induced cytopathic effect at 37 degC after 72 hrs by two-fold dilution method; type: functional; details: Rhinovirus A
[9] = tested on: Influenza A virus; assay: Antiviral activity against Influenza A2 virus Jap 170 infected in ferret trachea assessed as reduction in viral yield at 200 ug/ml after 3 days followed by compound-washout measured after 24 hrs by chick embryo-based hemagglutination titration method relative to control v; type: functional; design: scale not given: the % may be the effect or the level left
[10] = tested on: rhinovirus B14; assay: Antiviral activity against Human rhinovirus 14 assessed as inhibition of virus-induced cytopathic effect at 37 degC after 72 hrs by two-fold dilution method; type: functional; details: Rhinovirus B
[11] = Antiviral activity against Human rhinovirus 17 assessed as inhibition of virus-induced cytopathic effect at 37 degC after 72 hrs by two-fold dilution method; type: functional, Human rhinovirus B17; details: Rhinovirus B
[12] = tested on: Equine rhinovirus; assay: Antiviral activity against Equine rhinovirus infected in rhesus monkey trachea assessed as reduction in viral yield at 200 ug/ml after 3 days followed by compound-washout measured after 24 hrs by human CATR cell-based titration method relative to control; design: scale not given: the % may be the effect or the level left
[13] = tested on: Respiratory syncytial virus; assay: Antiviral activity against Respiratory syncytial virus assessed as inhibition of virus-induced cytopathic effect at 37 degC after 72 hrs by two-fold dilution method; type: functional; details: human respiratory syncytial virus
[14] = tested on: Influenza A virus; assay: Antiviral activity against Influenza A2 virus Jap 170 infected in ferret trachea assessed as reduction in viral yield at 400 ug/ml after 3 days followed by compound-washout measured after 24 hrs by chick embryo-based hemagglutination titration method relative to control; type: functional; design: scale not given: the % may be the effect or the level left
[15] = tested on: Human alphaherpesvirus 1; assay: Antiviral activity against Herpes simplex virus 1 assessed as inhibition of virus-induced cytopathic effect at 37 degC after 72 hrs by two-fold dilution method; type: functional; details: Human alphaherpesvirus 1, 72 h
[16] = tested on: unidentified influenza virus; assay: Antiviral activity against Parainfluenza virus assessed as inhibition of virus-induced cytopathic effect at 37 degC after 72 hrs by two-fold dilution method; type: functional

SMILES	MIC [1] [µg/mL]	MIC [2] [µg/mL]	inhibition [3]	other results
CCC(=O)C(CCCCCCOc1cc(Cl)cc(OC)c1)C(=O)CC	12 (≈ 32.5 µM)	6 (≈ 16.3 µM)	–	–
CCC(=O)C(CCCCCCOc1cccc(N(C)C)c1)C(=O)CC	–	6 (≈ 17.3 µM)	inactive	–
CCC(=O)C(CCCCCCOc1c(I)cc(I)cc1I)C(=O)CC	6 (≈ 8.8 µM)	12 (≈ 17.6 µM)	–	–
CCC(=O)C(CCCCCCOc1ccc(F)cc1)C(=O)CC	3 (≈ 9.3 µM)	3 (≈ 9.3 µM)	–	–
CCC(=O)C(CCCCCCOc1ccc(OCc2ccccc2)cc1Cl)C(=O)CC	3 (≈ 6.74 µM)	3 (≈ 6.74 µM)	–	–
CCC(=O)C(CCCCCCOc1ccc(S(N)(=O)=O)cc1)C(=O)CC	12 (≈ 31.3 µM)	–	–	–
CCC(=O)C(CCCCCCOc1cc(Cl)c(OC)cc1Cl)C(=O)CC	6 (≈ 14.9 µM)	3 (≈ 7.44 µM)	–	–
Nc1ccn([C@@H]2O[C@H](CO)[C@@H](O)[C@@H]2O)c(=O)n1 [CYTARABINE]	–	–	–	MIC [4]: < 3 µg/mL; MIC [5]: < 3 µg/mL
CCC(=O)C(CCCCCCOc1ccc(OC(=O)c2ccc(OC)cc2)cc1)C(=O)CC	–	6 (≈ 13.2 µM)	inactive	–
CCC(=O)C(CCCCCCOc1ccc(F)cc1Cl)C(=O)CC	6 (≈ 16.8 µM)	3 (≈ 8.41 µM)	–	–
CCC(=O)C(CCCOc1ccc2c(c1)OCO2)C(=O)CC	–	–	inactive	–
CCC(=O)C(CCCCCCCCOc1ccc2c(c1)OCO2)C(=O)CC	–	–	inactive	–
CCC(=O)C(CCCCCCCCCOc1ccc(OC)cc1Cl)C(=O)CC	12 (≈ 29.2 µM)	6 (≈ 14.6 µM)	–	–
CCC(=O)C(CCCCCCCCOc1ccc(OC)cc1Cl)C(=O)CC	3 (≈ 7.56 µM)	3 (≈ 7.56 µM)	–	–
CCC(=O)C(CCCCCCOc1ccccc1Cl)C(=O)CC	6 (≈ 17.7 µM)	3 (≈ 8.85 µM)	–	–
CCC(=O)C(CCCCCCOc1ccc(C#N)cc1)C(=O)CC	–	–	inactive	–
CCC(=O)C(CCCCCCOc1ccc(OCCN(CC)CC)cc1)C(=O)CC	–	25 (≈ 59.6 µM)	inactive	–
CCC(=O)C(CCCCCCOc1ccc(OC(=O)CCCN2CCOCC2)cc1)C(=O)CC	12 (≈ 25.2 µM)	12 (≈ 25.2 µM)	–	–
CCC(=O)C(CCCCCCOc1cccc([N+](=O)[O-])c1)C(=O)CC	–	3 (≈ 8.59 µM)	inactive	–
CCC(=O)C(CCCCCCOc1cccc(I)c1)C(=O)CC	6 (≈ 13.9 µM)	6 (≈ 13.9 µM)	–	–
CCC(=O)C(CCCCCCOc1ccc(OC)cc1Br)C(=O)CC	6 (≈ 14.5 µM)	3 (≈ 7.26 µM)	–	–
CCC(=O)C(CCCCCCCCCCOc1ccc(OC)cc1Cl)C(=O)CC	6 (≈ 14.1 µM)	12 (≈ 28.2 µM)	–	–

SMILES	MIC [1] [µg/mL]	MIC [2] [µg/mL]	inhibition [3]	other results
O=c1[nH]c(=O)n([C@H]2C[C@H](O)[C@@H](CO)O2)cc1I [IDOXURIDINE]	–	–	–	MIC [4]: 6 µg/mL (≈ 16.9 µM); MIC [5]: 6 µg/mL (≈ 16.9 µM)
CCC(=O)C(CCCCCCOc1ccc(OC(=O)c2ccccc2)cc1)C(=O)CC	–	–	inactive	–
CCC(=O)C(CCCCCCOc1ccc(Cl)cc1)C(=O)CC	–	3 (≈ 8.85 µM)	inactive	–
CCC(=O)C(CCCCCCOc1ccccc1C(F)(F)F)C(=O)CC	6 (≈ 16.1 µM)	6 (≈ 16.1 µM)	–	–
CCC(=O)C(CCCCCCOc1ccc(O)cc1)C(=O)CC	3 (≈ 9.36 µM)	12 (≈ 37.4 µM)	–	–
CCC(=O)C(CCCCCCOc1ccc(OC)cc1[N+](=O)[O-])C(=O)CC	6 (≈ 15.8 µM)	3 (≈ 7.91 µM)	–	–
CCC(=O)C(CCCCCCOc1ccccc1)C(=O)CC	1.5 (≈ 4.93 µM)	6 (≈ 19.7 µM)	–	–
CCC(=O)C(CCCCCCCOc1ccc2c(c1)OCO2)C(=O)CC	–	6 (≈ 16.6 µM)	inactive	–
CCC(=O)C(CCCCCCOc1ccc(Br)cc1)C(=O)CC	6 (≈ 15.7 µM)	3 (≈ 7.83 µM)	–	–
CCC(=O)C(CCCCCCOc1ccc(C(=O)O)cc1)C(=O)CC	–	6 (≈ 17.2 µM)	inactive	–
CCC(=O)C(CCCCCCOc1ccc2c(c1)OCO2)C(=O)CC	–	3 (≈ 8.61 µM)	inactive	–
CCC(=O)C(CCCCCCOc1cccc(C(F)(F)F)c1)C(=O)CC	–	–	inactive	–
CCC(=O)C(CCCCOc1ccc(OC)cc1Cl)C(=O)CC	–	–	inactive	–
CCC(=O)C(CCCCCCOc1ccc(Cl)cc1Cl)C(=O)CC	3 (≈ 8.04 µM)	–	–	–
CCC(=O)C(CCOCCOc1ccc(OC)cc1Cl)C(=O)CC	12 (≈ 33.6 µM)	25 (≈ 70.1 µM)	–	–
COc1ccc(OCCCCCCC(C(=O)C(C)(C)C)C(=O)C(C)(C)C)c(Cl)c1	6 (≈ 14.1 µM)	–	–	–
CCC(=O)C(CCCCCCOc1ccc(OC(C)=O)cc1Cl)C(=O)CC	–	12 (≈ 30.2 µM)	inactive	–
CCC(=O)C(CCCCCCOc1ccc(Br)cc1Cl)C(=O)CC	3 (≈ 7.18 µM)	3 (≈ 7.18 µM)	–	–
COc1ccc(OCCCCCCC(C(C)=O)C(C)=O)c(Cl)c1	12 (≈ 35.2 µM)	–	–	–
CCC(=O)C(CCCCCCOc1ccc(OC)cc1)C(=O)CC	25 (≈ 74.7 µM)	6 (≈ 17.9 µM)	–	–
CCC(=O)C(CCCCCCOc1ccc(OCc2ccccc2)cc1)C(=O)CC	1.5 (≈ 3.65 µM)	1.5 (≈ 3.65 µM)	–	–
CCC(=O)C(CCCCCCOc1ccccc1F)C(=O)CC	12 (≈ 37.2 µM)	3 (≈ 9.3 µM)	–	–

SMILES	MIC [1] [µg/mL]	MIC [2] [µg/mL]	inhibition [3]	other results
CCC(=O)C(CCCCCCOc1ccccc1[N+](=O)[O-])C(=O)CC	6 (≈ 17.2 µM)	6 (≈ 17.2 µM)	–	–
CCC(=O)C(CCCCCCOc1ccc(CC)cc1)C(=O)CC	12 (≈ 36.1 µM)	6 (≈ 18 µM)	–	–
CCC(=O)C(CCCCCCOc1c(Cl)c(Cl)c(Cl)c(Cl)c1Cl)C(=O)CC	–	12 (≈ 25.2 µM)	inactive	–
CCC(=O)C(CCCCCCOc1ccc(OC(=O)c2ccc(C)cc2)cc1)C(=O)CC	–	12 (≈ 27.4 µM)	inactive	–
CCC(=O)C(CCCCCCOc1ccc([N+](=O)[O-])cc1Cl)C(=O)CC	3 (≈ 7.82 µM)	3 (≈ 7.82 µM)	–	–
CCC(=O)C(CCCCCCOc1ccc(I)cc1)C(=O)CC	6 (≈ 13.9 µM)	3 (≈ 6.97 µM)	–	–
CCC(=O)C(CCCCCCOc1ccc(C(C)=O)cc1OC)C(=O)CC	12 (≈ 31.9 µM)	–	–	–
CCC(=O)C(CCCCCOc1ccc2c(c1)OCO2)C(=O)CC	–	–	inactive	–
CCC(=O)C(CCCCCCOc1ccc(SC)cc1)C(=O)CC	–	3 (≈ 8.56 µM)	inactive	–
CCOC(=O)C(CCCCCCOc1ccc(OC)cc1Cl)C(C)=O (configuration not stated)	–	6 (≈ 16.2 µM)	inactive	–
CCC(=O)C(CCCCCCOc1ccc(O)cc1Cl)C(=O)CC	6 (≈ 16.9 µM)	–	–	–
CCC(=O)C(CCCCCOc1ccc(OC)cc1Cl)C(=O)CC	6 (≈ 16.9 µM)	6 (≈ 16.9 µM)	–	–
CCC(=O)C(CCCCCCOc1ccc(OC)cc1Cl)C(=O)CC [ARILDONE]	6 (≈ 16.3 µM)	1.5 (≈ 4.07 µM)	–	Activity [6]: 70%; Activity [7]: 99.5%; MIC [8]: 0.7 µg/mL (≈ 1.9 µM); Activity [9]: 90%; MIC [10]: 1.5 µg/mL (≈ 4.07 µM); MIC [11]: 3 µg/mL (≈ 8.13 µM); Activity [12]: 98%; MIC [4]: 6 µg/mL (≈ 16.3 µM); MIC [13]: 3 µg/mL (≈ 8.13 µM); Activity [14]: 99.9%; MIC [5]: 6 µg/mL (≈ 16.3 µM); MIC [15]: 6 µg/mL (≈ 16.3 µM); MIC [16]: 1.5 µg/mL (≈ 4.07 µM)
CCC(=O)C(CCCCOc1ccc2c(c1)OCO2)C(=O)CC	–	12 (≈ 37.5 µM)	inactive	–
CCC(=O)C(CCCCCCOc1ccccc1I)C(=O)CC	–	12 (≈ 27.9 µM)	inactive	–
CCC(=O)C(CCCCCCOc1ccc(OCCO)cc1Cl)C(=O)CC	1.5 (≈ 3.76 µM)	3 (≈ 7.52 µM)	–	–
CCC(=O)C(CCCCCCOc1c(F)c(F)c(F)c(F)c1F)C(=O)CC	12 (≈ 30.4 µM)	–	–	–
CCOC(=O)c1ccc(OCCCCCCC(C(=O)CC)C(=O)CC)cc1	3 (≈ 7.97 µM)	6 (≈ 15.9 µM)	–	–
CCC(=O)C(CCCCCCCOc1ccc(OC)cc1Cl)C(=O)CC	6 (≈ 15.7 µM)	3 (≈ 7.83 µM)	–	–
Nc1ncnc2c1ncn2[C@@H]1O[C@H](CO)[C@@H](O)[C@@H]1O [VIDARABINE]	–	–	–	MIC [4]: 12 µg/mL (≈ 44.9 µM); MIC [5]: 12 µg/mL (≈ 44.9 µM)
